The results in this text go back to publication PMC3169196 (Journal of medicinal chemistry, 2011).

One data set deals with MCF10A cells. The experiment in a line: MTT assay with immortalized normal breast cells MCF10A. Type of data set: cell-based, human. The conditions noted are these: for killing of normal MCF10A cells: compared with cancerous MCF-7 and MDA-MB-231 cells. In general terms: Formazan colour is commonly taken as a measure of viable cells.
Another data set relates to eEF1A. Type of data set: binding, human. The note with it: biotinylated compound, MDA-MB-231 cell lysate, neutravidin beads, western blot.
For another data set, the system named is MCF-7 cells. Description: MTT assay, antiproliferative activity in MCF-7. Type of data set: cell-based, human. The note with it: MCF-7, 10μM of each analogue for three days.
The subject of data set [1] is eukaryotic elongation factor 1A1 (eEF1A1). The note with it: four rounds of biopanning, 12 phage clones per compound sequenced.
The subject of the next data set is MDA-MB-231 cells. Description: MTT assay, antiproliferative activity in MDA-MB-231. Type of data set: cell-based, human. The note with it: for in vitro anticancer activity at single concentration: MDA-MB-231, 10μM of each analogue for three days.
In a further data set the target is T1, eEF1A2 (Homo sapiens, UniProt Q05639).
T1 sequence (Q05639 1-463): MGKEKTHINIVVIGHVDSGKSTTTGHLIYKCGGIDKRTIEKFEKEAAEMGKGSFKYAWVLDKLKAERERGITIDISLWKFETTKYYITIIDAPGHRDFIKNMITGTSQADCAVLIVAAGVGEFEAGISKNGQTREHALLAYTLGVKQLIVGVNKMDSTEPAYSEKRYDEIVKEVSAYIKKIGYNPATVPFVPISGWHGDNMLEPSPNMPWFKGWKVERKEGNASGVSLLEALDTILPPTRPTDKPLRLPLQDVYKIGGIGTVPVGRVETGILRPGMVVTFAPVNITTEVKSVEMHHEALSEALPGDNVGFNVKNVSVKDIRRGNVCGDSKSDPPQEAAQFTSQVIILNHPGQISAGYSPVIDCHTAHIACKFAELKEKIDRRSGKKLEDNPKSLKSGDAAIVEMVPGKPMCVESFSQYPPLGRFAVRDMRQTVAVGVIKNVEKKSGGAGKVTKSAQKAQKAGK
Type of data set: binding. The conditions noted are these: biotinylated compounds on SA chip; apparent KDs unreliable.

Data set [2] concerns Akt (Ser473 and Thr308 phosphorylation). Description: Western blot analysis of Akt phosphorylation in MDA-MB-231 cells. The format is cell-based, human. The note with it: MDA-MB-231, 2μM for 6 hours and 12 hours. On the technique in general: In western blotting, separated proteins are transferred to a membrane and probed.
The test system of the next data set is protein translation. The experiment in a line: 35S-Methionine labeled protein translation assay. Type of data set: cell-based. The note with it: 2, 4 and 8μM for 8 hours.

Consider `COc1ccc(Nc2nc3cc4c(=O)cc(-c5ccc(C(=O)N[C@@H](CC(C)C)C(N)=O)cc5)oc4cc3n2[C@H](C)C2CCCCC2)cc1` [Compound 10], for which the “killing of normal MCF10A cells” value in the data set on MCF10A cells is “killed normal MCF10A cell in a similar manner as cancerous MCF-7 and MDA-MB-213 cells”. The “binding of eEF1A in pull down” value in the data set with eEF1A is listed as “eEF1A did indeed bind”. For the same compound, the “in vitro anticancer activity at single concentration” value in the data set with MCF-7 cells and in the data set on MDA-MB-231 cells was “among the most active compounds” each time. The “binding protein recovered from phage clones” value in data set [1] is on record as “two clones encoded eukaryotic elongation factor 1A1 (eEF1A1)”.

Take `CC(C)C[C@H](NC(=O)c1ccc(-c2cc(=O)c3cc([N+](=O)[O-])c(N[C@H](C)C4CCCCC4)cc3o2)cc1)C(N)=O` [Compound 39]: the “normal MCF10A cells killed” value in the data set with MCF10A cells (at 50μM) is given as “about 65%”. The “binding of eEF1A2 (SPR)” value at eEF1A2 is “selectively bind to eEF1A2”. Besides, in data set [2], the “phosphorylation of serine 473 and threonine 308 in Akt” value is “able to suppress phosphorylation”. Besides, in the data set with protein translation, the “35S-methionine incorporation into cellular proteins” value was “decreased ^35S-methionine incorporation into cellular proteins in a dose-dependent manner”. The “decrease in IC50 compared to 10” value in the data set on MDA-MB-231 cells (MDA-MB-231) was 5 fold.

For the compound `CC(C)CNc1nc2cc3c(=O)cc(-c4ccc(C(=O)N[C@@H](Cc5ccccc5)C(N)=O)cc4)oc3cc2n1Cc1ccccc1` [Compound 24], the “killing of normal MCF10A cells” value with MCF10A cells is “killed normal MCF10A cell in a similar manner as cancerous MCF-7 and MDA-MB-213 cells”. For the same compound, the “binding of eEF1A in pull down” value in the data set on eEF1A is “eEF1A did indeed bind”. The “in vitro anticancer activity at single concentration” value in the data set with MCF-7 cells and in the data set with MDA-MB-231 cells was “among the most active compounds” throughout. Moreover, in data set [1], the “binding protein recovered from phage clones” value is given as “Eukaryotic elongation factor 1A 1 (eEF1A1) was also recovered”.
